This assay has as its target T1, Nutrient-deprivation autophagy factor-1 (NAF-1, miner1) (Homo sapiens, UniProt Q8N5K1).
T1 sequence (Q8N5K1 57-135 limits assumed): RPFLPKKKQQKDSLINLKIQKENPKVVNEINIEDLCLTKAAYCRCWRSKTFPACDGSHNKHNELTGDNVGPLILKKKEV
The experiment in a line: scintillation proximity assay, [3H]rosiglitazone displacement. In kind it is binding. Background: In a scintillation proximity assay essentially only radioactivity close to the scintillant gives light.

A word on the IC50: it is the concentration that gives 50% inhibition. High values mean a need for much substance, low ones inhibition by little substance.

Consider NL-1, for which the IC50 is 29.8 µM.
